The values that follow come from PubChem BioAssay AID1996.

≈ marks a conversion by molar mass, not a printed value.

For this series the following is noted: buffer; pH 7.4; 200.0 µM.
Compound `CC1CCCCN1Cc1c[nH]c2ccccc12` (configuration not stated) came in with a kinetic solubility of 28.8 µg/mL (≈ 126 µM).

The compound `O=C(Nc1ccc(Cl)c(Cl)c1)c1ccc2c(c1)OCO2` showed a kinetic solubility of under 0.7 µg/mL. For the compound `CC1CCCCN1CC(O)COCc1ccccc1.Cl` (configuration not stated), the kinetic solubility is over 45 µg/mL. In the case of `CCCC(=O)Nc1ccc(C(=O)COC(=O)C2CC2C)cc1` (configuration not stated) it was 14 µg/mL (≈ 46.2 µM); in that of `N#CCCN(Cc1ccccc1)S(=O)(=O)c1cccs1`, over 46 µg/mL. Next, `CN(C(=O)CNc1ccccc1Cl)C1CCS(=O)(=O)C1` (configuration not stated): over 47.5 µg/mL; `COc1ccc(NC(=S)NCCNC(C)=O)cc1`: 35.4 µg/mL (≈ 132 µM); `Cc1cccc(C)c1NC(=O)CN1C(=O)COc2ccccc21`: 6 µg/mL (≈ 19.3 µM).

Compound `O=C(COC(=O)c1ccc[nH]c1=O)NC1CC1` returned a solubility (kinetic) of 32.3 µg/mL (≈ 137 µM). `CCCCOc1cc(C(=O)NCCN(CC)CC)c2ccccc2n1` yielded a kinetic solubility of over 51.5 µg/mL. Next, `COc1cc2c(cc1OC)C(c1ccc(O)cc1)NCC2` (configuration not stated): over 42.8 µg/mL; `O=C(O)/C=C/C(=O)Nc1ccc(OCc2ccccc2)cc1`: over 44.6 µg/mL.

Compound `N#CNC(=Nc1ccc(Cl)cc1)Oc1ccccc1` showed a solubility (kinetic) of 1.9 µg/mL (≈ 6.99 µM). In the case of `Cc1cc(=O)oc2cc(NC(=O)c3ccccc3C(=O)O)ccc12` it was over 48.5 µg/mL; in that of `O=S(=O)(c1ccccc1)N1CCN(c2ccccc2)CC1`, 0.4 µg/mL (≈ 1.32 µM); in that of `Cc1cn(C2OC(CC(=O)Oc3ccccc3)C(O)C2O)c(=O)[nH]c1=O` (configuration not stated), 48.5 µg/mL (≈ 134 µM). Next, `Cc1cccc(CCNCc2cc3ccc(C)cc3[nH]c2=O)c1`: 45.4 µg/mL (≈ 148 µM); `Cc1ccc(Nc2ncc3c(n2)CC(C)CC3=O)c(C)c1` (configuration not stated): over 42.2 µg/mL; `O=C(Nc1cc(Cl)ccc1N1CCOCC1)c1cccnc1Cl`: 49.7 µg/mL (≈ 141 µM). In the case of `CC(C)(C)NC(=O)C(=O)NC(=O)c1c(F)cccc1Cl` it was 36.2 µg/mL (≈ 120 µM); in that of `O=C(/C=C/c1ccccc1)Oc1ccccc1C(=S)N1CCOCC1`, 18.9 µg/mL (≈ 53.5 µM). With `CC(=O)Nc1cccc(Oc2nc(C(F)(F)F)nc3ccccc23)c1`, the solubility (kinetic) was 14 µg/mL (≈ 40.3 µM). In the case of `CCn1ccnc1CNC(=O)c1ccc2oc(C(C)C)nc2c1` it was over 46.9 µg/mL; in that of `Cc1ccc(N=Cc2c(O)c3ccccc3oc2=O)cc1F`, under 0.6 µg/mL; in that of `CSc1ccccc1NC(=O)COc1ccc2c(c1)OCO2`, 41.4 µg/mL (≈ 130 µM). In the case of `O=C(NCCO)/C(=C\c1ccco1)NC(=O)c1ccco1` it was 35 µg/mL (≈ 121 µM).

In turn, `Cn1c(N)c(C(=O)COC(=O)CNC(=O)c2ccccc2F)c(=O)n(C)c1=O` yielded a solubility (kinetic) of over 58.9 µg/mL.

For the compound `COc1ccc(CC(=O)N2CCN(c3cccc(C)c3C)CC2)cc1`, the kinetic solubility came to 25.1 µg/mL (≈ 74.2 µM).

Take `CC(C)OP(=O)(c1ccc(N(C)C)cc1)C(O)c1ccc(N(C)C)cc1` (configuration not stated): the solubility (kinetic) was over 56.5 µg/mL.

Compound `Cc1ccc(NC(=O)Nc2cc(C(F)(F)F)c[nH]c2=O)cc1` registered a kinetic solubility of 0.4 µg/mL (≈ 1.29 µM). Next, `NC(=O)COc1ccc2cc(-c3ccc(F)cc3)c(=O)oc2c1`: under 0.7 µg/mL. In the case of `NC(=O)C(=O)NCCCN1CCOCC1` it was over 32.3 µg/mL; in that of `Cc1cccc(-c2noc(C(C)NC(=O)c3ccco3)n2)c1` (configuration not stated), 32.9 µg/mL (≈ 111 µM); in that of `CC(C)CC(=O)N1CCN(Cc2ccc3ccccc3c2)CC1`, 26.4 µg/mL (≈ 85 µM). In the case of `O=[N+]([O-])c1ccc(Cl)cc1NCC1CCCO1` (configuration not stated) it was 28 µg/mL (≈ 109 µM); in that of `COc1ccc(C(C#N)c2nc3ccccc3nc2Cl)cc1` (configuration not stated), under 0.2 µg/mL.

Compound `COc1cc2[nH]c(=S)n(Cc3ccc(C)cc3)c(=O)c2cc1OC` gave a kinetic solubility of under 0.4 µg/mL.

`O=[N+]([O-])c1cccnc1Sc1ccc(Br)cc1` registered a solubility (kinetic) of 1.7 µg/mL (≈ 5.46 µM). In the case of `COc1cccc(C(=O)N2CCn3c2nc2ccccc23)c1` it was over 44 µg/mL; in that of `COc1ccc(Nc2c(-c3ccco3)nc3cccc(C)n23)cc1`, 1.2 µg/mL (≈ 3.76 µM); in that of `CCOc1ncccc1C(=O)OC(C)C(=O)NC1CCCCC1` (configuration not stated), over 48.1 µg/mL. In the case of `COc1ccc(CCOC(=O)c2ccc(N)c([N+](=O)[O-])c2)cc1` it was 1.1 µg/mL (≈ 3.48 µM). Next, `O=C(NC1CCCC1)c1cc(-c2ccccc2)on1`: 4 µg/mL (≈ 15.6 µM); `Cc1cccc(NS(=O)(=O)c2cc(Cl)ccc2Cl)n1`: over 47.6 µg/mL. `CC1CN(C(=O)c2cc3cc([N+](=O)[O-])ccc3oc2=O)CC(C)O1` (configuration not stated) gave a solubility (kinetic) of 46.1 µg/mL (≈ 139 µM). Next, `CC(C)CC(=O)Nc1ccc2c(c1)nc(CCN1CCCCC1)n2C`: over 51.4 µg/mL; `COc1ccc(Nc2nccc(-c3ccc(C#N)cc3)n2)cc1`: 0.7 µg/mL (≈ 2.32 µM); `O=C(Nc1ccc2ccccc2n1)c1ccccc1Br`: 4.6 µg/mL (≈ 14.1 µM). `Cc1ccc(Cl)cc1NC(=O)COc1ccccc1` came in with a kinetic solubility of 1.9 µg/mL (≈ 6.89 µM). In the case of `O=C(O)CC(CC(=O)Nc1ccc(Oc2ccccc2)cc1)c1ccccc1` (configuration not stated) it was over 56.3 µg/mL; in that of `c1ccc2c(c1)CCNC2c1ccncc1` (configuration not stated), over 31.5 µg/mL; in that of `Cc1ccc(OC(=O)Nc2ccccc2)cc1`, 17.8 µg/mL (≈ 78.3 µM).
